Data as given in ChEMBL document CHEMBL1201862, “PubChem BioAssay data set” (2004).
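Five compound concentrations were applied to cells in 96-well plates for 48 hours; endpoints were derived by simple linear interpolation of the resulting dose-response curve. GI50: concentration for 50% inhibition of growth.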 Active and inactive are the calls of the source. Rule as the data show it: active = GI50 up to about 1.1 µM and inactive = higher.

How the values were obtained:
Experiment in all cases: DTP human tumour cell line panel, 48 h
[1] = tested on: MDA-MB-231
[2] = tested on: SK-MEL-28
[3] = tested on: ACHN
[4] = tested on: SF-539
[5] = tested on: RXF 393
[6] = tested on: OVCAR-5
[7] = tested on: DU-145
[8] = tested on: MDA-N
[9] = tested on: NCI-H226
[10] = tested on: MDA-MB-435
[11] = tested on: U-251
[12] = tested on: IGROV-1
[13] = tested on: MCF7
[14] = tested on: CCRF-CEM
[15] = tested on: UACC-62
[16] = tested on: SW-620
[17] = tested on: HCT-116
[18] = tested on: KM12
[19] = tested on: SK-OV-3

Measured: GI50

CCOP(=O)(Nc1ccc2oc(=O)c3ccccc3c2c1)OCC
inactive: [1] 38.4 µM | [2] > 100 µM | [3] 33.2 µM | [4] > 100 µM | [5] 91.2 µM | [6] 80.4 µM | [7] 92.7 µM | [8] 97.5 µM | [9] 41 µM | [10] > 100 µM | [11] 75.2 µM | [12] 48 µM | [13] 14.2 µM | [14] 51.3 µM | [15] 48.1 µM | [16] > 100 µM | [17] 66.2 µM

CC1(C)Cc2ccccc2C(C)(Cl)C(=O)N1 (configuration not stated)
inactive: [18] > 10 µM | [1] > 10 µM | [2] > 10 µM | [3] > 10 µM | [4] > 10 µM | [5] > 10 µM | [6] > 10 µM | [7] > 10 µM | [8] > 10 µM | [9] > 10 µM | [10] > 10 µM | [11] > 10 µM | [12] > 10 µM | [13] > 10 µM | [14] > 10 µM | [15] > 10 µM | [16] > 10 µM | [17] > 10 µM

CCOC(=O)/C(=C/Nc1c(C)n(C)n(-c2ccccc2)c1=O)C(C)=O
inactive: [18] > 100 µM | [1] > 100 µM | [3] > 100 µM | [19] > 100 µM | [4] > 100 µM | [5] > 100 µM | [6] > 100 µM | [7] > 100 µM | [8] > 100 µM | [9] > 100 µM | [10] > 100 µM | [11] > 100 µM | [12] > 100 µM | [13] > 100 µM | [14] > 100 µM | [15] > 100 µM | [16] > 100 µM | [17] > 100 µM

C/C=C/C=C/C1=NN(c2cccc(S(=O)(=O)O)c2)C2(C1)SCC(=O)N2c1nc2ccccc2s1 (configuration not stated)
inactive: [18] 54.6 µM | [1] 56.2 µM | [2] > 100 µM | [3] 76.7 µM | [4] 45.9 µM | [5] > 100 µM | [6] > 100 µM | [7] 34.5 µM | [8] 61 µM | [9] 30.8 µM | [10] 36.1 µM | [11] 37.9 µM | [12] 19.7 µM | [13] 47.4 µM | [14] 24.2 µM | [15] 40.7 µM | [16] 72.1 µM | [17] 67 µM

Cc1ccc(O)c(Cc2nc3ccccc3nc2-c2cccc(Br)c2)c1
inactive: [18] > 100 µM | [1] > 100 µM | [3] 55.1 µM | [19] > 100 µM | [4] > 100 µM | [5] > 100 µM | [6] > 100 µM | [7] > 100 µM | [8] > 100 µM | [9] > 100 µM | [10] > 100 µM | [11] > 100 µM | [12] 46 µM | [13] 37.1 µM | [14] 28.4 µM | [15] > 100 µM | [16] 86.3 µM | [17] 48.5 µM

CC1SCc2nc3ccccc3n21 (configuration not stated)
inactive: [18] > 100 µM | [1] > 100 µM | [2] > 100 µM | [3] > 100 µM | [19] > 100 µM | [4] > 100 µM | [5] > 100 µM | [6] > 100 µM | [7] > 100 µM | [8] > 100 µM | [9] 3.58 µM | [10] > 100 µM | [11] > 100 µM | [12] > 100 µM | [13] > 100 µM | [14] > 100 µM | [15] > 100 µM | [17] > 100 µM
